Reference: ChEMBL document CHEMBL6182916, “Unexpected Discovery of a Novel Triphenylphosphonium Alkylalcohol That Triggers Cancer Cell Death via Mitophagy and Ferroptosis” (J Med Chem, 2025)
Calls of active or inactive are those of the source. No cut-off for these calls is given here.

Assays:
HCC827 [1] = assay: Effect on ATP5A expression in human HCC827 cells at 0.25 to 0.5 uM; assay type: functional, cell-based; conditions: dose 0.25-0.5 µM
HCC827 [2] = assay: Induction of apoptosis in human HCC827 cells assessed as late apoptotic cells at 0.25 uM measured after 48 hrs by annexin V and PI staining based flow cytometry analysis (reference value: 1.29%); assay type: functional
HeLa = assay: Induction of mitophagy in human HeLa cells harbouring mCherry-GFP tag assessed as reduction in GFP fluorescence at 0.5 uM incubated for 24 hrs by confocal microscopy analysis; assay type: functional, cell-based
A549 = assay: Antiproliferative activity against human A549 cells assessed as inhibition of cell growth measured after 72 hrs by MTT assay; assay type: functional, cell-based; conditions: A549, 72 h
HCC827 [3] = assay: Induction of ROS generation in human HCC827 cells assessed as increase in NAD+/NADH ratio at 1 uM incubated for 4 hrs by absorbance based analysis; assay type: functional, cell-based
HCC827 [4] = assay: Inhibition of cell migration in human HCC827 cells by wound healing assay; assay type: functional, cell-based; conditions: dose 0.05-0.1 µM
HCC827 [5] = assay: Effect on COX1 expression in human HCC827 cells at 0.25 to 0.5 uM; assay type: functional, cell-based; conditions: dose 0.25-0.5 µM
[6] = tested on: Osimertinib-resistant NCI-H1975 cell; assay: Antiproliferative activity against human Osimertinib-resistant NCI-H1975 cell assessed as inhibition of cell growth measured after 72 hrs by MTT assay; assay type: functional, cell-based
Mitochondrial membrane [7] = assay: Induction of mitochondrial membrane depolarization in human HCC827 cells assessed as increase green fluorescence intensity at 0.125 to 0.5 uM incubated for 4 hrs by rhodamine 123 staining based confocal microscopy analysis; assay type: cell membranes; conditions: dose 0.125-0.5 µM
BEAS-2B [8] = assay: Induction of mitochondrial dysfunction in human BEAS-2B cells assessed as decrease in ATP production at 0.125 to 5 uM incubated for 4 hrs by Seahorse XF96 extracellular flux analyzer; assay type: functional, cell-based; conditions: dose 0.125-5 µM
[9] = Antiproliferative activity against human HUVEC cells assessed as inhibition of cell growth measured after 72 hrs by MTT assay; assay type: toxicity, cell-based
HCC827 [10] = assay: Upregulation of PINK1 level in human HCC827 cells at 0.25 to 0.5 uM measured after 24 hrs; assay type: functional, cell-based; conditions: dose 0.25-0.5 µM
SK-LU-1 = assay: Antiproliferative activity against human SK-LU-1 cells assessed as inhibition of cell growth measured after 72 hrs by MTT assay; assay type: functional, cell-based; conditions: SK-LU-1, 72 h
[11] = Toxicity in female nude mouse assessed as drug tolerance at 5 to 10 mg/kg, ip measured after 14 days; assay type: organism-based; conditions: in vivo, 336 h, dose 5-10 mg/kg, time 14 day
HCC827 [12] = assay: Induction of apoptosis in human HCC827 cells assessed as early apoptotic cells at 0.25 uM measured after 48 hrs by annexin V and PI staining based flow cytometry analysis (reference value: 0.70%); assay type: functional
HCC827 [13] = assay: Induction of apoptosis in human HCC827 cells assessed as viable cells at 0.5 uM measured after 48 hrs by annexin V and PI staining based flow cytometry analysis (reference value: 96.74%); assay type: functional; conditions: read-out: Activity
Mitochondrial membrane [14] = assay: Induction of mitochondrial membrane depolarization in human NCI-H1650 cells assessed as increase in JC-1 monomer ratio at 0.25 to 0.5 uM incubated for 4 hrs by JC-1 staining based confocal microscopy analysis; assay type: cell membranes; conditions: dose 0.25-0.5 µM
HCC827 [15] = assay: Downregulation of TIMM23 expression level in human HCC827 cells at 0.5 uM incubated for 24 hrs in presence of Baf A1 by Western blot analysis; assay type: functional, cell-based
NCI-H1975 = assay: Antiproliferative activity against human NCI-H1975 cells assessed as inhibition of cell growth measured after 72 hrs by MTT assay; assay type: functional, cell-based; conditions: NCI-H1975, 72 h
BEAS-2B [16] = assay: Inhibition of colony formation in human BEAS-2B cells at 0.05 to 0.1 uM incubated for 72 hrs by crystal violet staining based analysis; assay type: functional, cell-based; conditions: dose 0.05-0.1 µM
[17] = Toxicity in female BALB/c mouse assessed as effect on body weight at 30 mg/kg, ip measured for 7 days; assay type: organism-based; conditions: in vivo, 168 h, time 7 day
HCC827 [18] = assay: Downregulation of TOMM20 expression level in human HCC827 cells incubated for 24 hrs by Western blot analysis; assay type: functional, cell-based; conditions: dose 0.25-0.5 µM
HCC827 [19] = assay: Downregulation of SDHB protein level in human HCC827 cells at 0.25 to 0.5 uM measured after 12 hrs; assay type: functional, cell-based; conditions: dose 0.25-0.5 µM
HCC827 [20] = assay: Effect on UQCRC2 expression in human HCC827 cells at 0.25 to 0.5 uM incubated for 24 hrs by Western blot analysis; assay type: functional, cell-based; conditions: dose 0.25-0.5 µM
[21] = target: T1, Heat shock protein 75 kDa, mitochondrial (Homo sapiens) (UniProt Q12931); assay: Inhibition of human TRAP1 assessed as fold increase in ATPase activity at 20 uM
T1 sequence (whole entry): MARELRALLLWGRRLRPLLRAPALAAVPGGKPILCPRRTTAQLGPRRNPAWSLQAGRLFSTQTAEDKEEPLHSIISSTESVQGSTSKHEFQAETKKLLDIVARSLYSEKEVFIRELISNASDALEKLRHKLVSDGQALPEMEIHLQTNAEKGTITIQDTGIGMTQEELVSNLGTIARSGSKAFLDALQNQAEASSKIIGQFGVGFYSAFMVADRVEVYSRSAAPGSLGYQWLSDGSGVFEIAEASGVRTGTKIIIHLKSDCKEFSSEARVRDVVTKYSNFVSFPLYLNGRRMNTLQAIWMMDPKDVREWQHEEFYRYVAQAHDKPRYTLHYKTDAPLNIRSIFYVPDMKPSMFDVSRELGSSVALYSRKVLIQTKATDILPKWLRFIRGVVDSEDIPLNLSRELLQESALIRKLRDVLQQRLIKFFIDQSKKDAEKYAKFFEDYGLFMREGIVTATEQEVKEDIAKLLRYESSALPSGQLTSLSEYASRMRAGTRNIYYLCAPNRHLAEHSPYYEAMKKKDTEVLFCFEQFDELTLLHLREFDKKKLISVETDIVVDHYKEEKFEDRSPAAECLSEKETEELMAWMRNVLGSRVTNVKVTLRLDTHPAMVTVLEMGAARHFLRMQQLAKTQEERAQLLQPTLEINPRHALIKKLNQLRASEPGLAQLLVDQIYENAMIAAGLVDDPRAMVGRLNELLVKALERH

HCC827 [22] = assay: Antiproliferative activity against human HCC827 cells assessed as increase in cell viability at 1 uM measured after 48 hrs in presence of BFA by MTT assay; assay type: functional, cell-based
HCC827 [23] = assay: Induction of ROS generation in human HCC827 cells assessed as decrease in NADH content at 1 uM incubated for 4 hrs by absorbance based analysis; assay type: functional, cell-based
HCC827 [24] = assay: Induction of apoptosis in human HCC827 cells assessed as necrotic cells at 1 uM measured after 36 hrs by annexin V and PI staining based flow cytometry analysis (Rvb =0.84%); assay type: functional
[25] = Toxicity in female BALB/c mouse assessed as histopathological changes in kidney at 30 mg/kg, ip measured for 7 days by H and E staining based analysis; assay type: organism-based; conditions: in vivo, 168 h, time 7 day
HCC827 [26] = assay: Induction of apoptosis in human HCC827 cells assessed as early apoptotic cells at 1 uM measured after 48 hrs by annexin V and PI staining based flow cytometry analysis (reference value: 0.70%); assay type: functional

Question: Which results are given for Cc1ccc([P+](CCCCCCCCCCO)(c2ccc(C)cc2)c2ccc(C)cc2)cc1.[Br-]?
Answer: Activity (HCC827 [1]): Active; Activity (HCC827 [2]): 3.3%; Activity (HeLa): Active; IC50 (A549): 490 nM; Activity (HCC827 [3]): Active; inhibition (HCC827 [4]): Dose-dependent-effect; Activity (HCC827 [5]): Active; IC50 [6]: 230 nM; Activity (Mitochondrial membrane [7]): inactive; Activity (BEAS-2B [8]): Minimal_effect; IC50 at 72 h [9]: 1800 nM; Activity (HCC827 [10]): Active; IC50 (SK-LU-1): 230 nM; Activity [11]: Non-toxic; Activity (HCC827 [12]): 1.16%; viability at 0.5 µM (HCC827 [13]): 88.5%; Activity (Mitochondrial membrane [14]): Active; Activity (HCC827 [15]): inactive; IC50 (NCI-H1975): 200 nM; inhibition (BEAS-2B [16]): Minimal_effect; Activity [17]: Non-toxic; Activity (HCC827 [18]): Dose-dependent-effect; Activity (HCC827 [19]): Active; Activity (HCC827 [20]): Active; fold change (FC) [21]: 2; Activity (HCC827 [22]): Active; Activity (HCC827 [23]): Active; Activity (HCC827 [24]): 0.96%; Activity [25]: Non-toxic; Activity (HCC827 [26]): 5.85%
